Earlier results, collected in patent US20090239822A1, “Process for the preparation of esters of diacerein with hyaluronic acid and pharmaceutical compositions containing such esters” (priority 2006, published 2009).

Settings: rhein from the pro-drug diacerein

- concentration in the synovial liquid: 1 to 10 µM
Structure (SMILES): O=C(O)c1cc(O)c2c(c1)C(=O)c1cccc(O)c1C2=O [rhein]
